# Measurements taken from ChEMBL document CHEMBL1155474, “8-THP-DHI analogs as potent Type I dual TIE-2/VEGF-R2 receptor tyrosine kinase inhibitors” (Bioorg Med Chem Lett, 2010).
# Calls of active or inactive are those of the source. No cut-off for these calls is given here.
# Columns and labels:
# [1] = Inhibition of PKC at 3 uM
# [2] = biological target: Angiopoietin-1 receptor (Homo sapiens, UniProt Q02763); experiment: Inhibition of human recombinant TIE-2 by time resolved fluorescence measurements
# [3] = biological target: T1, Vascular endothelial growth factor receptor 2 (Homo sapiens, UniProt P35968); experiment: Inhibition of human recombinant VEGFR2 by time resolved fluorescence measurements
# [4] = biological target: T1, Vascular endothelial growth factor receptor 2; experiment: Inhibition of VEGF-stimulated VEGFR2 autophosphorylation in HUVEC
# [5] = Terminal half life in rat at 1 mg/kg, iv; type: ADME, organism-based; set-up: dose 1 mg/kg, route intravenous; conditions: in vivo, read-out: beta t1/2 (converted)
# [6] = Clearance in rat at 1 mg/kg, iv; type: ADME, organism-based; set-up: dose 1 mg/kg, route intravenous; conditions: in vivo
# [7] = AUC (0 to infinity) in rat at 1 mg/kg, iv; type: ADME, organism-based; set-up: time infinity, dose 1 mg/kg, route intravenous; conditions: plasma
# [8] = Volume of distribution in rat at 1 mg/kg, iv; type: ADME, organism-based; set-up: dose 1 mg/kg, route intravenous; conditions: in vivo
# [9] = Oral bioavailability in rat at 10 mg/kg; type: ADME, organism-based; conditions: in vivo
# [10] = Terminal half life in rat at 10 mg/kg, po; type: ADME, organism-based; set-up: dose 10 mg/kg, route oral; conditions: in vivo, read-out: beta t1/2 (converted)
# [11] = AUC (0 to infinity) in rat at 10 mg/kg, po; type: ADME, organism-based; set-up: time infinity, dose 10 mg/kg, route oral; conditions: plasma
# [12] = Cmax in rat at 10 mg/kg, po; type: ADME, organism-based; set-up: dose 10 mg/kg, route oral; conditions: in vivo
# [13] = Metabolic stability in rat liver S9 fraction; type: ADME, subcellular
# [14] = Inhibition of cytochrome P450
# [15] = biological target: Tyrosine-protein kinase Lyn (Homo sapiens) (UniProt P07948); experiment: Inhibition of Lyn at 3 uM
# [16] = biological target: Platelet-derived growth factor receptor beta (Homo sapiens) (UniProt P09619); experiment: Inhibition of PDGFRbeta at 3 uM
# [17] = biological target: Fibroblast growth factor receptor 3 (Homo sapiens) (UniProt P22607); experiment: Inhibition of FGFR3 at 3 uM
# [18] = biological target: Tyrosine-protein kinase Lck (Homo sapiens) (UniProt P06239); experiment: Inhibition of LCK at 3 uM
# [19] = biological target: Tyrosine-protein kinase Fyn (Homo sapiens) (UniProt P06241); experiment: Inhibition of Fyn at 3 uM
# [20] = biological target: Tyrosine-protein kinase Yes (Homo sapiens) (UniProt P07947); experiment: Inhibition of YES at 3 uM
# [21] = biological target: Tyrosine-protein kinase Blk (Homo sapiens) (UniProt P51451); experiment: Inhibition of Blk at 3 uM
# [22] = biological target: Epidermal growth factor receptor (Homo sapiens, UniProt P00533); experiment: Inhibition of EGFR
# [23] = biological target: Insulin receptor (Homo sapiens, UniProt P06213); experiment: Inhibition of insulin receptor
# [24] = Inhibition of CDK at 3 uM
# [25] = biological target: T2, Serine/threonine-protein kinase Chk1 (Homo sapiens) (UniProt O14757); experiment: Inhibition of CHK1 at 3 uM
# T2 sequence (whole entry): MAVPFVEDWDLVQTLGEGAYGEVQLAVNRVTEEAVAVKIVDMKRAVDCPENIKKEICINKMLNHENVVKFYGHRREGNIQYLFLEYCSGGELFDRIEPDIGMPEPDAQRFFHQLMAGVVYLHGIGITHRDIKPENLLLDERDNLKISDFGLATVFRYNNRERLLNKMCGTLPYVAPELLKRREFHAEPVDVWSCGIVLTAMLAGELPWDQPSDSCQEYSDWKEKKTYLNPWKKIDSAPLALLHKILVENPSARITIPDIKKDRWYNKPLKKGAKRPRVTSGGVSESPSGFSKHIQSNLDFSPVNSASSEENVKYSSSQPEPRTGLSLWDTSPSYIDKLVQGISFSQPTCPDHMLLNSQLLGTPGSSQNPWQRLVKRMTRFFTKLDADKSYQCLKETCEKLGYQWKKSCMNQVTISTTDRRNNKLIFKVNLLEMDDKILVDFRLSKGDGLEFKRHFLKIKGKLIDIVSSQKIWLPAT
# [26] = biological target: Glycogen synthase kinase-3 beta (Homo sapiens) (UniProt P49841); experiment: Inhibition of GSK3-beta at 3 uM
# [27] = Inhibition of JNK at 3 uM
# [28] = Inhibition of MAPK at 3 uM
# [29] = biological target: Dual specificity mitogen-activated protein kinase kinase 1 (Homo sapiens) (UniProt Q02750); experiment: Inhibition of MEK1 at 3 uM
# [30] = biological target: Vascular endothelial growth factor receptor 1 (Homo sapiens, UniProt P17948); experiment: Inhibition of VEGFR1 at 3 uM
# [31] = biological target: Vascular endothelial growth factor receptor 3 (Homo sapiens, UniProt P35916); experiment: Inhibition of VEGFR3 at 3 uM
# [32] = system: Aorta; experiment: Ex vivo antiangiogenic activity in rat aortic ring assessed as inhibition of VEGF-stimulated microvessel growth; type: functional, tissue-based
# [33] = system: HUVEC; experiment: Inhibition of capillary tube formation in HUVEC; type: functional, cell-based; conditions: Homo sapiens
# [34] = system: HUVEC; experiment: Cytotoxicity against HUVEC; type: cell-based; conditions: human
# [35] = system: SVR; experiment: Antitumor activity against mouse SVR cells xenografted in nude mouse assessed as tumor inhibition at 1 mg/kg, po bid administered after 4 days tumor implantation for 10 days; type: functional
# [36] = system: SVR; experiment: Antitumor activity against mouse SVR cells xenografted in nude mouse assessed as tumor inhibition at 3 mg/kg, po bid administered after 4 days tumor implantation for 10 days; type: functional
# [37] = system: SVR; experiment: Antitumor activity against mouse SVR cells xenografted in nude mouse assessed as tumor regressions at 3 mg/kg, po bid administered after 4 days tumor implantation for 10 days; type: functional
# [38] = Plasma concentration in mouse SVR cells xenografted in nude mouse at 3 mg/kg, po bid administered after 4 days tumor implantation for 10 days measured after 2 hrs post dose; type: ADME, organism-based; set-up: dose 3 mg/kg, route oral
# [39] = Plasma concentration in mouse SVR cells xenografted in nude mouse at 1 mg/kg, po bid administered after 4 days tumor implantation for 10 days measured after 2 hrs post dose; type: ADME, organism-based; set-up: dose 1 mg/kg, route oral
# [40] = system: SVR; experiment: Antitumor activity against mouse SVR cells xenografted in nude mouse assessed as partial tumor regressions at 1 mg/kg, po bid administered after 4 days tumor implantation for 10 days; type: functional
# [41] = system: SVR; experiment: Antitumor activity against mouse SVR cells xenografted in nude mouse assessed as complete tumor regressions at 1 mg/kg, po bid administered after 4 days tumor implantation for 10 days; type: functional
# T1 sequence (P35968 whole entry): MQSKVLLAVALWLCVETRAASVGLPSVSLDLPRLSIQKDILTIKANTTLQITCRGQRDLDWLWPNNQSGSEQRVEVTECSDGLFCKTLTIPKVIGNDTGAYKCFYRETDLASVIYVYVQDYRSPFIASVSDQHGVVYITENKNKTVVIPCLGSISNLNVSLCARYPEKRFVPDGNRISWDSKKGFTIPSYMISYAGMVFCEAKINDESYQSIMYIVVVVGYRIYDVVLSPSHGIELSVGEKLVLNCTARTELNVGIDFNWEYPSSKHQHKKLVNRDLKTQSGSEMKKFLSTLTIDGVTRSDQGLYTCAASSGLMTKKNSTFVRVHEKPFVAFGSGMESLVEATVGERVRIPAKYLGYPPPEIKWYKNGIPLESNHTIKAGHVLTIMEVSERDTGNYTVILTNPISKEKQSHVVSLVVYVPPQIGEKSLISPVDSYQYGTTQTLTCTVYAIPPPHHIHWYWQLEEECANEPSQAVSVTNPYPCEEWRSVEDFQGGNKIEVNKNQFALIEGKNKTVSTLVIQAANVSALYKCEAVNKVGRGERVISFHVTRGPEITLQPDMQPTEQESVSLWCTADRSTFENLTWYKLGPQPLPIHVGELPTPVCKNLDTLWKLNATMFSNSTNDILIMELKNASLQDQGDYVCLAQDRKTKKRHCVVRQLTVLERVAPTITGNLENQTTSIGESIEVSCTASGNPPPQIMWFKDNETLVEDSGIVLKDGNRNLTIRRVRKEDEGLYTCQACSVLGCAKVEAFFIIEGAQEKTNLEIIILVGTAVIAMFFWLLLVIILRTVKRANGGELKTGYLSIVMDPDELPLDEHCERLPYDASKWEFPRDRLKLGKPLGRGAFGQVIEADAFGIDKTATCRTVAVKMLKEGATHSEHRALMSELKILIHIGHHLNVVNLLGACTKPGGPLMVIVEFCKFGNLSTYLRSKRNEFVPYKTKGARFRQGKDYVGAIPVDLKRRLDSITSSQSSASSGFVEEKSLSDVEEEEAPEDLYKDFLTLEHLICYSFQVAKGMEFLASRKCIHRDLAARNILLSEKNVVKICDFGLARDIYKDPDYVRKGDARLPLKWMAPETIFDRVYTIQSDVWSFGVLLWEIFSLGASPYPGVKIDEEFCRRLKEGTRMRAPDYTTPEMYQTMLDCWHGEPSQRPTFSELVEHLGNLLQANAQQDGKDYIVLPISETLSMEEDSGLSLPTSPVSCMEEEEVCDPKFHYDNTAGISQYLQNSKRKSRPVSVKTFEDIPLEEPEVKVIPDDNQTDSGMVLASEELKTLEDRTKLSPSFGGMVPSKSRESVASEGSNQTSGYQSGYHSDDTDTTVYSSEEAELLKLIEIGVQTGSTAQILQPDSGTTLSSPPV
# Tyrosine-protein kinase Lyn (Homo sapiens), sequence (P07948 2-512 limits assumed): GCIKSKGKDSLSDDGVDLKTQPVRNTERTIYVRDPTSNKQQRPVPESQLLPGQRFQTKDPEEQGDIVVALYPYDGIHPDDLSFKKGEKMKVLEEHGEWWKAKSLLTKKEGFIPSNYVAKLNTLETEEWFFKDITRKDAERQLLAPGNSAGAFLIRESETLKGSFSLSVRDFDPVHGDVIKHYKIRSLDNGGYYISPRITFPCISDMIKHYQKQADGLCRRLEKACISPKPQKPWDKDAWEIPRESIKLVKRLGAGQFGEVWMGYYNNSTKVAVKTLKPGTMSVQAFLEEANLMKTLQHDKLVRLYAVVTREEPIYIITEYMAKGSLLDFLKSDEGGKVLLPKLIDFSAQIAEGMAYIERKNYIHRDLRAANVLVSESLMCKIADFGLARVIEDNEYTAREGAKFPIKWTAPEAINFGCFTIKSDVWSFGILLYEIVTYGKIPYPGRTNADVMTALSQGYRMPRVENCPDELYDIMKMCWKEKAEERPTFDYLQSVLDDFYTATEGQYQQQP
# Tyrosine-protein kinase Yes (Homo sapiens), sequence (P07947 2-543 limits assumed): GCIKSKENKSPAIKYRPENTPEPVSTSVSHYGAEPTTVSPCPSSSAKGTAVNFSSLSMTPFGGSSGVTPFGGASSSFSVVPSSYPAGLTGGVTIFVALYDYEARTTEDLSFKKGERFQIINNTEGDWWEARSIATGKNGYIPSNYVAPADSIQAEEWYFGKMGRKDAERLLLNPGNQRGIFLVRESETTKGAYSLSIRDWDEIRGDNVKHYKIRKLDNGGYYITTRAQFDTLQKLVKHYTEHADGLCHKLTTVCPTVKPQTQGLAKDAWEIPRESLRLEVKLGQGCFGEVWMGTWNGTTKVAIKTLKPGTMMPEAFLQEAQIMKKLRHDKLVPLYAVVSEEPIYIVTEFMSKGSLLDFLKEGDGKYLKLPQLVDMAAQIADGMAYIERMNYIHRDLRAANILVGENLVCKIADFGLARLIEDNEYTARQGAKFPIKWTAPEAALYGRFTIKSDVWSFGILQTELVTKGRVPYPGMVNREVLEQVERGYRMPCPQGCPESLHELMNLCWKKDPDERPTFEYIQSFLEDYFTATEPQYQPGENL
# Tyrosine-protein kinase Lck (Homo sapiens), sequence (P06239 2-509 limits assumed): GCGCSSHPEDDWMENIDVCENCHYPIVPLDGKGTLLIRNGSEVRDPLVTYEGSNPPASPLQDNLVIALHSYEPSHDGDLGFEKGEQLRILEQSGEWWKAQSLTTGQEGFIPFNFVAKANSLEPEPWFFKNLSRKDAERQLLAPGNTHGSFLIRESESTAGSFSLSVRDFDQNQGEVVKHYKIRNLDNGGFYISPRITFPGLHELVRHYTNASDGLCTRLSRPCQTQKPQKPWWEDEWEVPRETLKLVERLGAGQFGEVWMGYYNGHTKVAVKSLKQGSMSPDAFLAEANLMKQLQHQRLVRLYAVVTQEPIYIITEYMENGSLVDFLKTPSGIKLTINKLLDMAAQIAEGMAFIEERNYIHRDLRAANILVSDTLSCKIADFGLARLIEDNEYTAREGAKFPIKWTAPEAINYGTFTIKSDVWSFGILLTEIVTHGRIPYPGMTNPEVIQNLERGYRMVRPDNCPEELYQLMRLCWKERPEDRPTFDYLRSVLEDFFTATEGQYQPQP
# Tyrosine-protein kinase Fyn (Homo sapiens), sequence (P06241 2-537 limits assumed): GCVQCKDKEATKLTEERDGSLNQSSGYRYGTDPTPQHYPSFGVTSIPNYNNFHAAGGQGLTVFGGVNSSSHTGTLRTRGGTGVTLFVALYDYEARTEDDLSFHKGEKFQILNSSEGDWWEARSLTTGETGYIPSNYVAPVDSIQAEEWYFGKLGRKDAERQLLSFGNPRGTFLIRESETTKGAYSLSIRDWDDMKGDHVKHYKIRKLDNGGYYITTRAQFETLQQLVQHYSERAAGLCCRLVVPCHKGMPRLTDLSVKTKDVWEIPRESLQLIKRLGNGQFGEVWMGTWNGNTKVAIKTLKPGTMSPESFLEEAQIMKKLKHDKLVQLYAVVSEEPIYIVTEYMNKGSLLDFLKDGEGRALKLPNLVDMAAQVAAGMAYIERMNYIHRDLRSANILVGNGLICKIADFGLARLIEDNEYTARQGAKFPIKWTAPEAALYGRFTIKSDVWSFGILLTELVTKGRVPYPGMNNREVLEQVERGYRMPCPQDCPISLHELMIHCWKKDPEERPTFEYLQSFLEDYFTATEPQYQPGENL
# Tyrosine-protein kinase Blk (Homo sapiens), sequence (P51451 2-505 limits assumed): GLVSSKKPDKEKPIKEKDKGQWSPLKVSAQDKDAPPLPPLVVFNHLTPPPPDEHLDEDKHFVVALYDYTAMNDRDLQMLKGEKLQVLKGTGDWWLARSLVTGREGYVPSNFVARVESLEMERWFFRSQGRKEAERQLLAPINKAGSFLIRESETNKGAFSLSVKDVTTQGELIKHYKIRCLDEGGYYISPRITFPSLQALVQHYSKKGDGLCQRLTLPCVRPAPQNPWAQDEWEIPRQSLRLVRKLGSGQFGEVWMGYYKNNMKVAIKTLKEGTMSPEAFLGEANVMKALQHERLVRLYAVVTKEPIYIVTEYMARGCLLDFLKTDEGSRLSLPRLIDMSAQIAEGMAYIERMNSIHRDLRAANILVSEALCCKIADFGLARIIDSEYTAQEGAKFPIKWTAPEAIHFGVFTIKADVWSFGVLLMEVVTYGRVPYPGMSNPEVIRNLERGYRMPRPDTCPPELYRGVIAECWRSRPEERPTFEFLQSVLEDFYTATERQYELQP
# Glycogen synthase kinase-3 beta (Homo sapiens), sequence (P49841 whole entry, looked up): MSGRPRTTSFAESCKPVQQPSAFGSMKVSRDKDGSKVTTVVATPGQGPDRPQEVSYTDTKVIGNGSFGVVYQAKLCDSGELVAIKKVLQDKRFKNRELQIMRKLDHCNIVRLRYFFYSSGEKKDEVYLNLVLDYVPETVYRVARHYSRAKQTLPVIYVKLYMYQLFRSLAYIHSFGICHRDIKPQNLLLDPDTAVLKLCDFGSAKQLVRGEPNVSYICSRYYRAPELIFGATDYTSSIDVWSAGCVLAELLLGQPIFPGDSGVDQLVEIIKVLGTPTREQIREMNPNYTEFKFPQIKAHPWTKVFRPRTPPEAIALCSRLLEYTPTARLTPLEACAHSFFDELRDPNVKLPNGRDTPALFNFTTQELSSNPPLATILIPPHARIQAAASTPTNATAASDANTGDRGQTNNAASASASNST
# Dual specificity mitogen-activated protein kinase kinase 1 (Homo sapiens), sequence (Q02750 whole entry): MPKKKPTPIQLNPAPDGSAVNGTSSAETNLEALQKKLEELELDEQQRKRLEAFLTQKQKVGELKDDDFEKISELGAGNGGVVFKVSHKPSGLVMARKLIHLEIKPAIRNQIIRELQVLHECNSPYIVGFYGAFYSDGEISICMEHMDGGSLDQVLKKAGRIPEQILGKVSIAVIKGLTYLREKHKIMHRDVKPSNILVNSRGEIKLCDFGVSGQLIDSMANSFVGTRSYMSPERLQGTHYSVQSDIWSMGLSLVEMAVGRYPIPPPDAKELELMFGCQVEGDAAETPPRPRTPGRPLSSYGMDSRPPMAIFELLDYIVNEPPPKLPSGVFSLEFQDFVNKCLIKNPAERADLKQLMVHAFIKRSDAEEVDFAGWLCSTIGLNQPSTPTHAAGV
smiles,measurement,setting,value
CCCCn1c2ccc(C3CCCCO3)cc2c2c3c(c4c(c21)CCc1nn(C)cc1-4)C(=O)NC3 (racemic),inhibition,[1],inactive
same,IC50,[2],10 nM
same,IC50,[3],24 nM
same,IC50,[4],10 nM
same,half-life,[5],1.5 h
same,clearance,[6],15 mL/min/kg
same,AUC(0-inf),[7],1160 ng·h/mL
same,Vd,[8],2 L/kg
same,bioavailability,[9],16%
same,half-life,[10],2.8 h
same,AUC(0-inf),[11],1890 ng·h/mL
same,Cmax,[12],255 ng/mL
same,Stability,[13],Stable
same,INH,[14],> 10 µM
same,inhibition,[15],> 90%
same,inhibition,[16],> 90%
same,inhibition,[17],100%
same,inhibition,[18],> 90%
same,inhibition,[19],> 90%
same,inhibition,[20],> 90%
same,inhibition,[21],> 90%
same,IC50,[22],> 1000 nM
same,IC50,[23],> 1000 nM
same,inhibition,[24],inactive
same,inhibition,[25],inactive
same,inhibition,[26],inactive
same,inhibition,[27],inactive
same,inhibition,[28],inactive
same,inhibition,[29],inactive
same,IC50,[30],28 nM
same,IC50,[31],5 nM
same,EC50,[32],1.2 nM
same,EC50,[33],0.6 nM
same,Activity,[34],Non-toxic
same,inhibition in vivo at 1 mg/kg,[35],52%
same,inhibition in vivo at 3 mg/kg,[36],63%
same,Activity,[37],10%
same,concentration at 2 h,[38],900 nM
same,concentration at 2 h,[39],158 nM
CC(C)Cn1c2ccc(C3CCCCO3)cc2c2c3c(c4c(c21)CCc1nn(C)cc1-4)C(=O)NC3 (racemic),inhibition,[1],inactive
same,IC50,[2],3 nM
same,IC50,[3],11 nM
same,IC50,[4],10 nM
same,half-life,[5],1.9 h
same,clearance,[6],20 mL/min/kg
same,AUC(0-inf),[7],862 ng·h/mL
same,Vd,[8],3.2 L/kg
same,bioavailability,[9],15%
same,half-life,[10],3.9 h
same,AUC(0-inf),[11],1260 ng·h/mL
same,Cmax,[12],154 ng/mL
same,Stability,[13],Stable
same,INH,[14],> 10 µM
same,inhibition,[15],> 90%
same,inhibition,[16],> 90%
same,inhibition,[17],100%
same,inhibition,[18],> 90%
same,inhibition,[19],> 90%
same,inhibition,[20],> 90%
same,inhibition,[21],> 90%
same,IC50,[22],> 1000 nM
same,IC50,[23],> 1000 nM
same,inhibition,[24],inactive
same,inhibition,[25],inactive
same,inhibition,[26],inactive
same,inhibition,[27],inactive
same,inhibition,[28],inactive
same,inhibition,[29],inactive
same,IC50,[30],16 nM
same,IC50,[31],9 nM
same,EC50,[32],0.9 nM
same,EC50,[33],2 nM
same,Activity,[34],Non-toxic
same,inhibition in vivo at 1 mg/kg,[35],59%
same,Activity,[40],10%
same,Activity,[41],10%
same,inhibition in vivo at 3 mg/kg,[36],61%
same,Activity,[37],10%
same,concentration at 2 h,[38],950 nM
same,concentration at 2 h,[39],321 nM
